In ChEMBL document CHEMBL3045466, “Novel 2H-[1,2,4]thiadiazolo[2,3-a]pyrimidine derivatives bearing chiral S()-2-(4-chlorophenyl)-3-methylbutyric acid moiety: Design, synthesis and herbicidal activity” (2010):

Columns and labels:
Format in all cases: functional
Conditions in all cases: 144 h, read-out: GI
Echinochloa crus-galli [1] = assay: Herbicidal activity against Echinochloa crus-galli (barnyard grass) assessed as inhibition of root growth at 50 ppm after 6 days by flat-utensil method relative to control
Chenopodium ficifolium [2] = assay: Herbicidal activity against Chenopodium ficifolium assessed as inhibition of stalk growth at 100 ppm after 6 days by flat-utensil method relative to control
Amaranthus retroflexus [3] = assay: Herbicidal activity against Amaranthus retroflexus assessed as inhibition of root growth at 50 ppm after 6 days by flat-utensil method relative to control
Echinochloa crus-galli [4] = assay: Herbicidal activity against Echinochloa crus-galli (barnyard grass) assessed as inhibition of stalk growth at 50 ppm after 6 days by flat-utensil method relative to control
Digitaria sanguinalis [5] = assay: Herbicidal activity against Digitaria sanguinalis (hairy crabgrass) assessed as inhibition of stalk growth at 100 ppm after 6 days by flat-utensil method relative to control
Echinochloa crus-galli [6] = assay: Herbicidal activity against Echinochloa crus-galli (barnyard grass) assessed as inhibition of stalk growth at 100 ppm after 6 days by flat-utensil method relative to control
Sorghum bicolor [7] = assay: Herbicidal activity against Sorghum bicolor assessed as inhibition of stalk growth at 50 ppm after 6 days by flat-utensil method relative to control
Amaranthus retroflexus [8] = assay: Herbicidal activity against Amaranthus retroflexus assessed as inhibition of stalk growth at 50 ppm after 6 days by flat-utensil method relative to control
Amaranthus retroflexus [9] = assay: Herbicidal activity against Amaranthus retroflexus assessed as inhibition of root growth at 100 ppm after 6 days by flat-utensil method relative to control
Digitaria sanguinalis [10] = assay: Herbicidal activity against Digitaria sanguinalis (hairy crabgrass) assessed as inhibition of root growth at 100 ppm after 6 days by flat-utensil method relative to control
Digitaria sanguinalis [11] = assay: Herbicidal activity against Digitaria sanguinalis (hairy crabgrass) assessed as inhibition of stalk growth at 50 ppm after 6 days by flat-utensil method relative to control
Sorghum bicolor [12] = assay: Herbicidal activity against Sorghum bicolor assessed as inhibition of root growth at 100 ppm after 6 days by flat-utensil method relative to control
Sorghum bicolor [13] = assay: Herbicidal activity against Sorghum bicolor assessed as inhibition of stalk growth at 100 ppm after 6 days by flat-utensil method relative to control
Echinochloa crus-galli [14] = assay: Herbicidal activity against Echinochloa crus-galli (barnyard grass) assessed as inhibition of root growth at 100 ppm after 6 days by flat-utensil method relative to control
Chenopodium ficifolium [15] = assay: Herbicidal activity against Chenopodium ficifolium assessed as inhibition of stalk growth at 50 ppm after 6 days by flat-utensil method relative to control
Amaranthus retroflexus [16] = assay: Herbicidal activity against Amaranthus retroflexus assessed as inhibition of stalk growth at 100 ppm after 6 days by flat-utensil method relative to control
Chenopodium ficifolium [17] = assay: Herbicidal activity against Chenopodium ficifolium assessed as inhibition of root growth at 50 ppm after 6 days by flat-utensil method relative to control
Chenopodium ficifolium [18] = assay: Herbicidal activity against Chenopodium ficifolium assessed as inhibition of root growth at 100 ppm after 6 days by flat-utensil method relative to control
Digitaria sanguinalis [19] = assay: Herbicidal activity against Digitaria sanguinalis (hairy crabgrass) assessed as inhibition of root growth at 50 ppm after 6 days by flat-utensil method relative to control
Sorghum bicolor [20] = assay: Herbicidal activity against Sorghum bicolor assessed as inhibition of root growth at 50 ppm after 6 days by flat-utensil method relative to control

Compound	inhibition of growth at 50 ppm (Echinochloa crus-galli [1])	inhibition of growth at 100 ppm (Chenopodium ficifolium [2])	inhibition of growth at 50 ppm (Amaranthus retroflexus [3])	inhibition of growth at 50 ppm (Echinochloa crus-galli [4])	inhibition of growth at 100 ppm (Digitaria sanguinalis [5])	inhibition of growth at 100 ppm (Echinochloa crus-galli [6])	inhibition of growth at 50 ppm (Sorghum bicolor [7])	inhibition of growth at 50 ppm (Amaranthus retroflexus [8])	inhibition of growth at 100 ppm (Amaranthus retroflexus [9])	inhibition of growth at 100 ppm (Digitaria sanguinalis [10])	inhibition of growth at 50 ppm (Digitaria sanguinalis [11])	inhibition of growth at 100 ppm (Sorghum bicolor [12])	inhibition of growth at 100 ppm (Sorghum bicolor [13])	inhibition of growth at 100 ppm (Echinochloa crus-galli [14])	inhibition of growth at 50 ppm (Chenopodium ficifolium [15])	inhibition of growth at 100 ppm (Amaranthus retroflexus [16])	inhibition of growth at 50 ppm (Chenopodium ficifolium [17])	inhibition of growth at 100 ppm (Chenopodium ficifolium [18])	inhibition of growth at 50 ppm (Digitaria sanguinalis [19])	inhibition of growth at 50 ppm (Sorghum bicolor [20])
Cc1cc(C)n2s/c(=N\C(=O)[C@H](c3ccc(Cl)cc3)C(C)C)nc2n1	30%	80%	50%	50%	90%	80%	20%	50%	100%	80%	55%	20%	25%	30%	50%	95%	50%	85%	45%	20%
COc1cc(OC)n2s/c(=N\C(=O)[C@H](c3ccc(Cl)cc3)C(C)C)nc2n1	20%	90%	40%	40%	90%	70%	25%	45%	95%	80%	50%	50%	40%	20%	90%	80%	90%	90%	40%	20%
CC(C)[C@H](C(=O)/N=c1/nc2nc(Cl)cc(Cl)n2s1)c1ccc(Cl)cc1	30%	40%	45%	40%	10%	75%	20%	50%	80%	0%	0%	20%	30%	50%	20%	75%	30%	60%	0%	20%
COc1cc(Cl)n2s/c(=N\C(=O)[C@H](c3ccc(Cl)cc3)C(C)C)nc2n1	80%	20%	0%	60%	10%	70%	60%	0%	30%	10%	0%	80%	80%	100%	10%	20%	10%	10%	0%	60%
Cc1cc(O)n2s/c(=N\C(=O)[C@H](c3ccc(Cl)cc3)C(C)C)nc2n1	70%	100%	50%	30%	10%	40%	35%	60%	90%	25%	10%	30%	40%	80%	70%	95%	50%	80%	20%	30%
Cc1cc(Cl)n2s/c(=N\C(=O)[C@H](c3ccc(Cl)cc3)C(C)C)nc2n1	70%	85%	85%	10%	30%	30%	10%	90%	100%	40%	30%	40%	20%	90%	80%	100%	80%	90%	30%	20%
Cc1cc(C)n2s/c(=N\C(=O)C(c3ccc(Cl)cc3)C(C)C)nc2n1 (racemic)	0%	70%	20%	20%	60%	25%	0%	10%	50%	70%	40%	0%	10%	10%	40%	20%	35%	60%	30%	0%
COc1cc(OC)n2s/c(=N\C(=O)C(c3ccc(Cl)cc3)C(C)C)nc2n1 (racemic)	0%	50%	20%	30%	60%	30%	10%	30%	45%	60%	35%	0%	20%	0%	20%	30%	20%	50%	30%	0%
